Test results published in article PMC8312882, “STING Ligand-Mediated Priming of Functional CD8^+ T Cells Specific for HIV-1-Protective Epitopes from Naive T Cells” (Journal of Virology, 2021).

System: naive T cells in PBMCs of HIV-1-seronegative individuals
Assay: In vitro priming of epitope-specific CD8+ T cells from naive T cells (accelerated dendritic cell coculture, tetramer staining)
Type: cell-based, human
Experimental: Naive CD8^+ T-cell precursors specific for HLA-B*52:01-restricted, HLA-A*24:02-restricted, or HLA-C*12:02-restricted ones were primed in vitro by using the accelerated dendritic cell coculture protocol ([23], [24], [56], [57]). On day 0, frozen-thawed PBMCs of HIV-1-seronegative individuals having the HLA-B*52:01-C*12:02 haplotype or HLA-A*24:02 were suspended at 5 × 10^6 cells/well in 24-well tissue culture plates containing AIM-V medium (Invitrogen) supplemented with Flt3L (50 ng/ml; R&D Systems). AIM-V medium supplemented with a 10 μM concentration of each peptide and STING ligand 3′3′-cGAMP (10 μg/ml; InvivoGen) was added on day 1, and then FCS was further added to 10% by volume per well on day 2. On day 10, the cells were collected and then stained with epitope-specific tetramers.
HLA-B*52:01-RI8, -MI8, -SI8, or -WV8 peptide tetrameric complexes (tetramers) and HLA-A*24:02-RF10, HLA-C*12:02-IY11, -MY9, or -RL9 complexes were generated as previously described ([58]). CD8^+ T cells specific for a given epitope were stained with phycoerythrin (PE)-conjugated epitope-specific tetramers at 37°C for 30 min. The cells were then washed twice with RPMI 1640 medium containing 5% FCS (R5), followed by staining with allophycocyanin (APC)-conjugated anti-CD8 MAb (Dako, Denmark) and 7-aminoactinomycin D (7-AAD; BD Pharmingen) at 4°C for 30 min. Finally, the cells were washed twice with R5 and then analyzed by using a FACS Canto II. Primed T cells unstained with tetramer were used as a negative control to determine gating of the tetramer^+ population. The tetramer^+ population was determined based on the gating of the negative control ([…] of tetramer^+ cells).

[1] = HIV-1-uninfected individuals having HLA-B*52:01-C*12:02 haplotype

Nc1nc2c(ncn2[C@@H]2O[C@@H]3COP(=O)(O)O[C@H]4[C@@H](O)[C@H](n5cnc6c(N)ncnc65)O[C@@H]4COP(=O)(O)O[C@H]3[C@H]2O)c(=O)[nH]1 [3′3′-cGAMP]
priming of CD8+ T cells specific for HLA-B*52:01-restricted epitopes from naive T cells [1]: effectively primed CD8^+ T cells specific for 3 of 4 HLA-B*52:01-restricted epitopes | priming of CD8+ T cells specific for HLA-C*12:02-restricted epitopes from naive T cells [1]: failed to prime those specific for all 3 HLA-C*12:02-restricted epitopes | mean frequency of NefRF10-specific T cells ± 2 SD (stimulated with 3′3′-cGAMP (10 μg/ml) and NefRF10 peptide (10 μM) after Flt3 ligand 24 h, PBMCs from 7 HIV-1-seronegative HLA-A*24:02+ individuals, HLA-A*24:02-NefRF10 tetramer, 10-day culture, SD): 0.206% ± 0.186%
